Test results: patent US11632953B2, “Method for controlling hematophagous or sap-feeding arthropods” (Board of Supervisors of Louisiana State University and …, priority 2016, dated 2023)
≈ marks a conversion by molar mass, not a printed value.

Key:
[1] = solubility limit in feeding solution
An. gambiae [2] = experiment: blood meal processing, abdominal diameter; type: in vivo, Anopheles gambiae; details: topical, ED30 dose of VU041 after engorgement
Procedure: Blood meal processing studies were performed with similar methods, with the exception that An. gambiae were blood-fed on anesthetized mice. All methods were carried out in accordance with Vanderbilt Institutional Animal Care and Use Committee approval. Upon completion of blood feeding, female mosquitoes with fully distended abdomens were selected, and 200 nL of compound at a non-lethal concentration (1 μg/mg) was applied directly to the abdomen. Any mosquito that died during the 24 h observation period was excluded from the analysis. Images of the abdomens were acquired at 0, 2, 5, 8, and 24 h through the dorsal cuticle; abdomens were measured at the widest point. Images were captured using bright-field illumination on a Nikon 90i light microscope (Nikon Corp., Tokyo, Japan) connected to a Photometrics CoolSNAP HQ2 high-sensitivity monochrome CCD camera (Roper Scientific, Ottobrunn, Germany). Digital images were acquired using Nikon Advanced Research NIS-Elements software. Mean abdominal diameters were compared using one-way ANOVA with a Tukey's post-hoc analysis (Prism 6, Graphpad Software, La Jolla, Calif.).

Ae. aegypti = experiment: topical toxicity bioassay in adult female Ae. aegypti; type: in vivo, Aedes aegypti; details: 24 h
Procedure: Topical toxicity bioassays in adult female Ae. aegypti (LVP and PR strains) were performed. […] A solvent-only treatment was included in each experiment as a negative control. Treated mosquitoes were transferred to small cages with access to 10% sucrose and held under rearing conditions for 24 h. The efficacy of a dose was measured as the percentage of treated mosquitoes in a cage that were flightless or dead at 24 h. Four to eight replicates of 10 mosquitoes were performed per dose. The ED50 values were determined using a non-linear curve fit analysis (log [inhibitor] vs. response variable-slope) in Prism 6 (Graphpad Software).
Six replicate experiments of 10 mosquitoes each were performed.

Drosophila melanogaster = experiment: whole plant or invertebrate; details: for mortality in CAFE assay: 200 μM VU041, 700 μM VU937; for reduction of total volume of sucrose solution ingested: 100 μM fluphenazine, 200 μM VU041
Procedure: A capillary feeding assay (CAFE) was used to quantify the volume of sucrose solution consumed over a period of time; it was performed essentially as described in W. W. Ja, G. B. Carvalho, E. M. Mak, N. N. de la Rosa, A. Y. Fang, J. C. Liong, T. Brummel, S. Benzer, Prandiology of Drosophila and the CAFE assay. Proceedings of the National Academy of Sciences of the United States of America 104, 8253-8256 (2007); published online EpubMay 15 (10.1073/pnas.0702726104). […] One adult fly was placed into a 2 mL glass vial with a screw lid that was pierced with a glass microcapillary tube having a truncated 200-0 pipette tip. The microcapillary tubes contained 5% (wt/vol) sucrose solution with a 5 μl mineral oil overlay to minimize evaporation. […] Concentrations of 100 μM dopamine and 100 μM fluphenazine were used to determine the influence of those agents on fly feeding. […] All dead flies were excluded from all time points of the study regardless of the time of death. Mean (n>25) values are shown in all figure panels, depicting total consumption.
Times spent feeding in Kir1 and GFP genetic knockdown studies were compared to control values for each day using one-way ANOVA with a Dunns multiple comparisons post-test. Statistical significance for all studies was P<0.05.

An. gambiae [3] = experiment: topical toxicity bioassay in adult female An. gambiae; type: in vivo, Anopheles gambiae; details: for ED50 (95% confidence limits), Akron Strain / ED50 (95% confidence limits), G3 Strain: topical, synergists 500 ng/insect four hours prior
Procedure: Topical toxicity bioassays were performed on non-blood-fed adult female mosquitoes. The mosquitoes were chilled on ice for 1-3 minutes, during which 200 nL of compound (dissolved in 95% ethanol) was applied onto the abdomen of each insect with a handheld Hamilton® micro-applicator. […] […] The three resulting ED50 values were averaged. An ethanol-only treatment was included in each experiment as a negative control. Treated mosquitoes were transferred to small cages with access to 10% sucrose and held under rearing conditions for 24 h. Mortality was recorded at 24 h.

O=C(Cn1nc(C(F)(F)F)c2c1CCCC2)N1CCCc2ccccc21 [VU041, 1-(3,4-dihydroquinolin-1(2H)-yl)-2-(3-(trifluoromethyl)-4,5,6,7-tetrahydro-1H-indazol-1-yl)ethan-1-one]
solubility ([1]; 5% (wt/vol) sucrose solution, water): 200 µM (≈ 72.7 µg/mL)
abdominal diameter over 24 h after blood feeding (An. gambiae [2]): did not thereafter change much
approximate ED50 (Ae. aegypti; topical, LVP strain): ~3.24 μg/mg mosquito
mortality in CAFE assay (Drosophila melanogaster): approximately 30%
reduction of total volume of sucrose solution ingested (Drosophila melanogaster; 1 day PE): 2.6 fold
reduction of total volume of sucrose solution ingested (Drosophila melanogaster; 2 days PE): 2.7 fold
reduction of total volume of sucrose solution ingested (Drosophila melanogaster; 3 days PE): 2.9 fold
reduction of total volume of sucrose solution ingested (Drosophila melanogaster; 4 days PE): 3.2 fold
EC50 (Drosophila melanogaster; Drosophila melanogaster, 96 h, read-out: EC50 of reduction of sucrose consumption): 68 µM
maximal reduction of volume of sucrose consumption (Drosophila melanogaster; concentration-dependent): up to 3.2 fold
enhancement of toxicity by inhibition of CYP450s in the AKRON strain over the G3 strain (An. gambiae [3]; Akron strain): 3 fold
enhancement of efficacy by PBO pretreatment (An. gambiae [3]; G3 strain): ~3 fold
enhancement of toxicity by DEF pre-treatment (An. gambiae [3]; G3 strain): did not enhance toxicity
ED50 (95% confidence limits), Akron Strain (An. gambiae [3]; 24 h, Akron strain): 2.8 (2.1-4.1) A μg/mg
ED50 (95% confidence limits), G3 Strain (An. gambiae [3]; 24 h, G3 strain): 1.8 (0.9-3.1) A μg/mg

O=C(Cn1nc(C(F)(F)F)c2c1CCCC2)NC1CCC1 [VU937]
solubility limit ([1]; 5% sucrose solution): 700 µM (≈ 211 µg/mL)
abdominal diameter over 24 h after blood feeding (An. gambiae [2]): decreased significantly over 24 h
topical toxicity (Ae. aegypti; adult females): not toxic
mortality in CAFE assay (Drosophila melanogaster): less than 10%
topical toxicity (An. gambiae [3]; adult females, 24 h): not toxic
ED50 (95% confidence limits), Akron Strain (An. gambiae [3]; 24 h, Akron strain): >10 µg/mg
ED50 (95% confidence limits), G3 Strain (An. gambiae [3]; 24 h, G3 strain): >10 µg/mg
